Assay results reported in ChEMBL document CHEMBL1156402, “Two new furanoditerpenes from Saururus chinenesis and their effects on the activation of peroxisome proliferator-activated receptor gamma” (J Nat Prod, 2002).

Columns and labels:
[1] = biological target: T1, Peroxisome proliferator-activated receptor gamma (Homo sapiens) (UniProt P37231); test: Agonist activity at human PPARgamma expressed in mouse NIH/3T3 cells assessed as receptor activation at 100 uM after 16 hrs by luciferase based reporter gene assay relative to control; format: functional, cell-based; conditions: NIH3T3
T1 sequence (whole entry): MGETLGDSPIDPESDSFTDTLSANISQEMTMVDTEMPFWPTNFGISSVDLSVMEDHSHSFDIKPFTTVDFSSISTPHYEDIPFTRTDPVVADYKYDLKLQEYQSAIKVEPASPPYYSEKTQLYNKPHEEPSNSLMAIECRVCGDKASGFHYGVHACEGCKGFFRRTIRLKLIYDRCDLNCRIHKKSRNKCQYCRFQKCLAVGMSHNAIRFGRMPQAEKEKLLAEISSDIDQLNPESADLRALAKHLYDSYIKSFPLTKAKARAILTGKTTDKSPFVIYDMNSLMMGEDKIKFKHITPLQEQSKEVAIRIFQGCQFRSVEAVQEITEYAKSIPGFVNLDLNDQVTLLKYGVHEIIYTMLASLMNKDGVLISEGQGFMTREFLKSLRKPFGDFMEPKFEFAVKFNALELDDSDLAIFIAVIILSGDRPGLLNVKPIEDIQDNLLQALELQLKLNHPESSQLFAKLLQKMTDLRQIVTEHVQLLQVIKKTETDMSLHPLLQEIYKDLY

[2] = biological target: T2, Peroxisome proliferator-activated receptor gamma (Homo sapiens, UniProt P37231); test: Agonist activity at human PPARgamma expressed in mouse NIH/3T3 cells assessed as receptor activation after 16 hrs by luciferase based reporter gene assay; format: functional, cell-based, NIH3T3
T2 sequence (P37231 whole entry): T1 sequence (whole entry)

Row | fold change (FC) [1] | EC50 [2] | SMILES
1 | 15 |  | CC1(COc2ccc(CC3SC(=O)NC3=O)cc2)CCCCC1 (centres undefined)
2 | 13.5 | 16.7 µM | C/C(=C/CC/C(C)=C/CC/C(C)=C/Cc1occc1C)C(=O)O [SAURUFURAN A]
3 |  | > 100 µM | C/C(=C\CC/C(C)=C/Cc1occc1C)CC/C=C(\C)C(=O)O [SAURUFURAN B]
